Data published in publication PMC6736633 (Bioorganic & medicinal chemistry letters, 2019).

Test system: Mycobacterium tuberculosis (Mtb) H37Rv
Assay: Mtb luminescence assay
Assay type: cell-based
Settings: for reduction in Mtb signal (in words) / relative Mtb signal: 20 μM

Structure (SMILES) | reduction in Mtb signal (in words) | relative Mtb signal | also measured
COc1ccc2c(Nc3ccc(NC(=O)c4ccc(C)cc4)c(O)c3)ccnc2c1 [Compound 33] | no reduction |  | 
COc1cc2nccc(Nc3ccc(OCc4cccc(F)c4)c(Cl)c3)c2cc1OC [Compound 28] |  | 10% | 
C#Cc1cccc(Nc2ncnc3cc(OCCOC)c(OCCOC)cc23)c1 [Erlotinib] |  |  | Mtb signal at plateau (plateau of effect): approximately 70%
CS(=O)(=O)CCNCc1ccc(-c2ccc3ncnc(Nc4ccc(OCc5cccc(F)c5)c(Cl)c4)c3c2)o1 [Lapatinib] |  | below 10% | 
COc1ccc2nccc(Nc3ccc(NC(=O)c4ccc(C)cc4)c(O)c3)c2c1 [Compound 32] | no reduction |  | 
COc1cc2nccc(Nc3ccc(NC(C)=O)cc3)c2cc1OC [Compound 31] |  |  | effect on Mtb (in words) (across tested concentrations up to 20 μM): no effect
